From patent US8962657B2, “Aryl derivatives and uses thereof” (Jacobus Pharmaceutical Company, Inc., priority 2012, dated 2015)
pIC50: −log10 of the molar value. Like-named read-outs stand apart in the source and are kept apart here. Marks after values point to notes of the source that are not given here.

Columns and labels:
[1] = test system: Plasmodium berghei (KBG-173 strain); assay: Plasmodium berghei assay in vivo (modified Thompson Test), survival of infected mice; set-up: species or system Charles River CD-1 mice; details: for Average Days Survival: 31 day experiment
Protocol: In vivo antimalarial activity was tested in male or female Charles River CD-1 mice that were 4-5 weeks old and weighed 20-25 g They were housed in groups of 3 or 4 in standard plastic cages with wire tops, Bed-o-cob® bedding, 12 hr/day of light, and maintained at 75° F. They were fed a standard Ralston Purina mouse chow and the cages and bottles were changed twice a week. Test compounds were ground in a mortar and pestle and diluted with enough vehicle to give a volume of 10 mL/kg of mouse weight. The oral doses were prepared in 0.5% hydroxyethylcellulose (Union Carbide Corp. WP 4400)/0.1% Tween-80 (Fisher Scientific T164-500). The amount of drug was calculated on the free base weight. The mice were infected intraperitoneally on day 0 with 5×10^4 erythrocytes parasitized with Plasmodium berghei (KBG-173 strain) from a donor mouse having a parasitemia between 5-10%. On days 3, 4 and 5 the test compounds were administered bid, spaced 6 hr apart, by oral gavage to the mice. Activity was measured by survival, with full activity defined as all animals living at day 31. Partial activity is defined as days of increased survival versus the infected non-treated controls. This in vivo model is a modification of the Thompson Test. For further description see Ager, A. L, Jr. Rodent Malaria Models. In Handbook of Experimental Pharmacology: Antimalarial Drugs. 1. 68/1; Peters, W., Richards, W. H. G., Eds.: Springer-Verlag: Berlin, 1984, pp. 231-33.

[2] = test system: P. falciparum strain D6 (sensitive to chloroquine and pyrimethamine); assay: [3H]-hypoxanthine growth inhibition assay, P. falciparum D6; assay type: cell-based; details: Plasmodium falciparum, D6, read-out: D6 IC50
Protocol: (§1) The potential for antimalarial activity against Plasmodium falciparum was determined by measuring the incorporation of tritiated hypoxanthine into parasitized red blood cells.
(§2) Stock solutions of the test compounds and the reference drug chloroquine (CQ) (Sigma Chemicals C-6628, Lot #059H0919) were prepared in silanized glass vials with AquaSil™ (Pierce, USA) to minimize absorption of the compounds to glassware. All test compounds were dissolved in DMSO (Sigma Cat No. # D8418) to 1 mM concentration, whereas CQ was dissolved in 50% methanol at a concentration of 1.6 mg/ml (base). Stock solutions were stored at −20° C.
(§3) The P. falciparum laboratory adapted strains utilized in this project (Table 1) were in vitro cultured and routinely maintained in RPMI-1640-LPLF complete medium, which contained low concentrations of para-amino benzoic acid (0.0005 mg/L) and folic acid (0.01 mg/L).
(§4) The low concentration of folic acid in RPMI-1640-LPLF prevents inhibition of the compound if its activity targets the parasite's folate metabolic pathway. Parasites were cultured in human red blood cells (RBCs) in vitro at 37° C. in special gas mixture (5% O2, 5% CO2 and 90% N2) as described Trager and Jensen (1979 Science 193:673-675).
(§5) Base cultivation medium consisted of 10.4 g/L RPMI-1640-LPLF powder (Gibco BRL), 5.97 g/L HEPES buffer (MP Biomedicals, USA), 2.0 g/L D-glucose (BDH chemicals, Australia), 0.05 g/L hypoxanthine (Sigma, USA) and 40 mg/L gentamycin (Pfizer, Australia). The pH of the medium was adjusted to 6.9 and the solution was filtered using 0.2 μm pore size (AcroCap, Gelman Science, USA). […] For [^3H]-hypoxanthine inhibition growth assay, RPMI-1640-LPLF complete medium which lacked [^3H]-hypoxanthine ([^3H]-RPMI-1640-LPLF) was used to prevent uptake of hypoxanthine by parasites, as radioactive hypoxanthine uptake is measured as a surrogate marker of growth. […]
(§6) Red blood cells (RBC) were required for P. falciparum parasites to proliferate in vitro. […] Following the final wash, the haematocrit was measured as the percent of RBC to total culture volume. […]

[3] = test system: P. falciparum strain W2 (resistant to chloroquine and pyrimethamine); assay: [3H]-hypoxanthine growth inhibition assay, P. falciparum W2; assay type: cell-based; details: Plasmodium falciparum, W2, read-out: W2 IC50
Protocol: as §1, §2, §3, §4, §5, §6

[4] = 4 mg/kg/day, oral bid on days 3, 4 and 5
[5] = 16 mg/kg/day, oral bid on days 3, 4 and 5
[6] = 64 mg/kg/day, oral bid on days 3, 4 and 5
[7] = 128 mg/kg/day, oral bid on days 3, 4 and 5
[8] = Plasmodium berghei, po, 744 h, read-out: Number of mice alive at day 31
[9] = 8 mg/kg/day, oral bid on days 3, 4 and 5
[10] = 32 mg/kg/day, oral bid on days 3, 4 and 5
[11] = Plasmodium berghei, 744 h, 4 mg/kg/day, oral bid on days 3, 4 and 5, read-out: Number of mice alive at day 31 (converted)
[12] = Plasmodium berghei, 744 h, 8 mg/kg/day, oral bid on days 3, 4 and 5, read-out: Number of mice alive at day 31 (converted)
[13] = Plasmodium berghei, 744 h, 16 mg/kg/day, oral bid on days 3, 4 and 5, read-out: Number of mice alive at day 31 (converted)
[14] = Plasmodium berghei, 744 h, 32 mg/kg/day, oral bid on days 3, 4 and 5, read-out: Number of mice alive at day 31 (converted)
[15] = Plasmodium berghei, 744 h, 64 mg/kg/day, oral bid on days 3, 4 and 5, read-out: Number of mice alive at day 31 (converted)
[16] = 2 mg/kg/day, oral bid on days 3, 4 and 5
[17] = Plasmodium berghei, 744 h, 2 mg/kg/day, oral bid on days 3, 4 and 5, read-out: Number of mice alive at day 31 (converted)

| SMILES | Average Days Survival [1, 4] | Average Days Survival [1, 5] | Average Days Survival [1, 6] | Average Days Survival [1, 9] | Average Days Survival [1, 10] | responders at 4 mg/kg [1, 11] [%] | responders at 8 mg/kg [1, 12] [%] | responders at 16 mg/kg [1, 13] [%] | responders at 32 mg/kg [1, 14] [%] | Average Days Survival [1, 16] [days] | responders at 2 mg/kg [1, 17] [%] | also measured |
| --- | --- | --- | --- | --- | --- | --- | --- | --- | --- | --- | --- | --- |
| CCN(CC)CCCC(C)Nc1ccnc2cc(Cl)ccc12 (stereo not shown) [Chloroquine, chloroquine, reference compound] | 10.3 days | >18.8 days | >18.6 days | – | – | – | – | – | – | – | – | Average Days Survival [1, 7]: >21.3 days; responders at 4 mg/kg [1, 8]: 0%; responders at 16 mg/kg [1, 8]: 14.3%; responders at 64 mg/kg [1, 8]: 28.6%; responders at 128 mg/kg [1, 8]: 57.1%; pIC50 [2]: 7.92; pIC50 [3]: 6.88 |
| CC(C)(C)NCc1cc(C(C)(C)C)cc(-c2ccc(OC(F)(F)F)cc2)c1O [Example 5, 5-(tert-Butyl)-3-((tert-butylamino)methyl)-4′-(trifluoromethoxy)-[1,1′-biphenyl]-2-ol] | >19.3 days | >31* Days | >31* Days | >31* Days | >31* Days | 42.9 | 100 | 100 | 100 | – | – | Average Days Survival [1, 7]: >31* Days; Average Days Survival ([1]; 256 mg/kg/day, oral bid on days 3, 4 and 5): >31* Days; responders at 64 mg/kg [1, 15]: 100%; responders at 128 mg/kg ([1]; Plasmodium berghei, 744 h, 128 mg/kg/day, oral bid on days 3, 4 and 5, read-out: Number of mice alive at day 31 (converted)): 100%; responders at 256 mg/kg ([1]; Plasmodium berghei, 744 h, 256 mg/kg/day, oral bid on days 3, 4 and 5, read-out: Number of mice alive at day 31 (converted)): 100% |
| CC(C)(C)NCc1cc(C(C)(C)C)cc(-c2cc(C(F)(F)F)cc(C(F)(F)F)c2)c1O.Cl [Example 16, 5-(tert-Butyl)-3-((tert-butylamino)methyl)-3′,5′-bis(trifluoromethyl)-[1,1′-biphenyl]-2-ol hydrochloride] | >17 days | >31* Days | – | >31* Days | >31* Days | 85.7 | 100 | 100 | 100 | >20.5 | 42.9 | – |
| CC1(NCc2cc(C(C)(C)C)cc(-c3ccc(OC(F)(F)F)cc3)c2O)CCC1.Cl [Example 18, 5-(tert-Butyl)-3-(((1-methylcyclobutyl)amino)methyl)-4′-(trifluoromethoxy)-[1,1′-biphenyl]-2-ol hydrochloride] | 15.7 days | >31* Days | – | >31* Days | >31* Days | 0 | 100 | 100 | 100 | – | – | – |
| CC(C)(C)NCc1cc(C(C)(C)C)cc(-c2ccc(Cl)c(Cl)c2)c1O.Cl [Example 19, 5-(tert-Butyl)-3-((tert-butylamino)methyl)-3′,4′-dichloro-[1,1′-biphenyl]-2-ol hydrochloride] | >31* Days | >31* Days | – | >31* Days | – | 100 | 100 | 100 | – | >7 | 85.7 | Average Days Survival ([1]; 1 mg/kg/day, oral bid on days 3, 4 and 5): >19.6 days; responders at 1 mg/kg ([1]; Plasmodium berghei, 744 h, 1 mg/kg/day, oral bid on days 3, 4 and 5, read-out: Number of mice alive at day 31 (converted)): 28.6% |
| CC(C)(C)NCc1cc(C(C)(C)C)cc(-c2ccc(C(F)(F)F)cc2)c1O.Cl [Example 22, 5-(tert-Butyl)-3-((tert-butylamino)methyl)-4′-(trifluoromethyl)-[1,1′-biphenyl]-2-ol hydrochloride] | >24 days | >31* Days | >31* Days | >31* Days | >31* Days | 85.7 | 100 | 100 | 100 | >16.8 | 28.6 | responders at 64 mg/kg [1, 15]: 100% |
| CC(C)(C)NCc1cc(C(C)(C)C)cc(-c2ccc(F)c(Cl)c2)c1O.Cl [Example 24, 5-(tert-Butyl)-3-((tert-butylamino)methyl)-3′-chloro-4′-fluoro-[1,1′-biphenyl]-2-ol hydrochloride] | >14.5 days | >31* Days | – | >16 days | >31* Days | 71.4 | 85.7 | 100 | 100 | >17 | 42.9 | – |
| CC(C)(C)NCc1cc(-c2ccc(Cl)cc2)cc(-c2ccc(Cl)c(Cl)c2)c1O.Cl [Example 39, 5′-((tert-Butylamino)methyl)-3″,4,4″-trichloro-[1,1′:3′,1″-terphenyl]-4′-ol hydrochloride] | >31* Days | >31* Days | – | >31* Days | – | 100 | 100 | 100 | – | >23 | 14.3 | – |
